For one assay, the system named is H929 cells. Put plainly: Cell viability assay (Cell TiterGlo). As to conditions: Homo sapiens, NCI-H929, 24 hours at 37° C., Cell TiterGlo luminescence. The format is cell-based. The protocol:
The cell viability assay was performed using H929 cells. Cells were seeded in 96-well plates at 10,000 cells/well and, after overnight incubation, treated with compounds in a dose response of 3-fold dilutions from 10 μM to 0.005 μM ([…], 0.1% final DMSO concentration). After 24 hours at 37° C., cell viability was measured using Cell TiterGlo reagent (Promega) with a luminescence reader.
On the technique in general: Cellular ATP, detected with luciferase, serves as a proxy for viable cell number.

The next assay concerns the target CDK9/Cyclin T1 (Homo sapiens (Human), UniProt P50750). Put plainly: CDK9 enzyme assay (LANCE ULight TR-FRET kinase assay). The format is biochemical. The following applies: 1000 μM ATP, 100 nM ULight MBP, kinase reaction 1 hour. On the procedure: CDK9 enzyme activities were measured using LANCE ULight TR-FRET kinase assay reagents (PerkinElmer, Waltham, Mass.). Compounds were diluted in 100% DMSO then diluted with 1:10 in serine/threonine kinase assay buffer containing 20 mM HEPES, 10 mM MgCl2, […], and 0.0075% Triton X-100. Equal volume of the compound dilutions was added to a final reaction mixture containing LANCE detection buffer (PerkinElmer CR97-100), 100 nM ULight MBP (PerkinElmer TRF0109M), 1000 μM ATP, and CDK9/Cyclin T1 (Carna Biosciences 04-110). The kinase reaction was carried out for 1 hour before addition of stopping buffer to a final of 20 mM EDTA and 0.5 nM of LANCE Ultra Europium anti-phospho-MBP antibody (PerkinElmer TRF0201M) in LANCE detection buffer. The reaction was incubated for 1 hour and the signal was read in Envision in TR-FRET mode (excitation at 320 nm and emission at 615/665 nm).

CDK9/Cyclin T1, sequence (P50750 whole entry): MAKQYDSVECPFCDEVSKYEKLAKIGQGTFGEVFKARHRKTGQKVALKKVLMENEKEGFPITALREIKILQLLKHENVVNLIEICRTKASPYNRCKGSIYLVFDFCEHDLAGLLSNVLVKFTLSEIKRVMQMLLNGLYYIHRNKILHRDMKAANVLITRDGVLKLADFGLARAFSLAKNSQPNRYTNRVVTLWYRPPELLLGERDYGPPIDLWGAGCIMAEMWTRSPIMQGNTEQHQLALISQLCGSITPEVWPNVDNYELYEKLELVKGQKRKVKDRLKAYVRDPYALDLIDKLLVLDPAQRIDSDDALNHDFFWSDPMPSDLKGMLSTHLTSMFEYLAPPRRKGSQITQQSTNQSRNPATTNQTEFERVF
CDK9/Cyclin T1, sequence (O60563 whole entry partner): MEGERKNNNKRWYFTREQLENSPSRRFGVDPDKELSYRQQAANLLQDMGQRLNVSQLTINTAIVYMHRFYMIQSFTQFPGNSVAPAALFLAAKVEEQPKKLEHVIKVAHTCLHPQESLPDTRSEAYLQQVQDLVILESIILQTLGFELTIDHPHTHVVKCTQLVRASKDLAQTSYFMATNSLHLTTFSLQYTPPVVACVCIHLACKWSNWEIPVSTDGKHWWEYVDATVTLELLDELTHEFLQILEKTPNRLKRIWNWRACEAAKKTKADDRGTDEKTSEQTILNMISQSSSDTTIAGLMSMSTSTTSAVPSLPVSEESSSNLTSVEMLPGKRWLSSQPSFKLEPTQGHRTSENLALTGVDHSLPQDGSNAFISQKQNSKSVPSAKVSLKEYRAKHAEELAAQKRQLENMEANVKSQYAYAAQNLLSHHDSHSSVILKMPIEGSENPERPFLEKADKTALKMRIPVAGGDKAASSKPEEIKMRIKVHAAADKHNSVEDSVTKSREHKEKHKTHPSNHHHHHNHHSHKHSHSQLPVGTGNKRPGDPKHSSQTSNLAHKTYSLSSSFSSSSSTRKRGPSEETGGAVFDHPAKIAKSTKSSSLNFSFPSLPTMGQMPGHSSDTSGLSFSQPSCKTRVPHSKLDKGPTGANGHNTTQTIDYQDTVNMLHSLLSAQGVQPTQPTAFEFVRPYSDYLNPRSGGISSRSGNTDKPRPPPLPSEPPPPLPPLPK

Take `CN1Cc2c(C3=CCN(CC(=O)N4CC[C@H](O)C4)CC3)[nH]c3nccc(c23)-c2cc(F)ccc21` [Example 42, 2-[4-(10-fluoro-7-methyl-6,7-dihydro-4H-3,4,7-triazadibenzo[cd,f]azulen-5-yl)-3,6-dihydropyridin-1(2H)-yl]-1-[(3S)-3-hydroxypyrrolidin-1-yl]ethanone]: the results for the IC50 in the assay with H929 cells and at CDK9/Cyclin T1 were 79 nM and 48 nM, respectively.
Take `CN1Cc2c(-c3ccc(S(C)(=O)=O)cc3)[nH]c3nccc(c23)-c2cc(F)ccc21` [Example 43, 10-fluoro-7-methyl-5-[4-(methylsulfonyl)phenyl]-6,7-dihydro-4H-3,4,7-triazadibenzo[cd,f]azulene]: the IC50 in the assay with H929 cells stood at 230 nM; against CDK9/Cyclin T1 it was 66 nM.
On the same counts, the results for `CN1Cc2c(-c3ccncc3)[nH]c3nccc(c23)-c2cc(F)ccc21` [Example 44, 10-fluoro-7-methyl-5-(pyridin-4-yl)-6,7-dihydro-4H-3,4,7-triazadibenzo[cd,f]azulene] are 490 nM and 130 nM.
For `CN1Cc2c(-c3ccc(S(C)(=O)=O)nc3)[nH]c3nccc(c23)-c2cc(F)ccc21` [Example 45, 10-fluoro-7-methyl-5-[6-(methylsulfonyl)pyridin-3-yl]-6,7-dihydro-4H-3,4,7-triazadibenzo[cd,f]azulene], the IC50 in the assay with H929 cells is 830 nM; against CDK9/Cyclin T1, 110 nM.
In the case of `CN1Cc2c(-c3cnc(N)nc3)[nH]c3nccc(c23)-c2cc(F)ccc21` [Example 46, 5-(10-fluoro-7-methyl-6,7-dihydro-4H-3,4,7-triazadibenzo[cd,f]azulen-5-yl)pyrimidin-2-amine], the IC50 with H929 cells is > 10000 nM; at CDK9/Cyclin T1, 3300 nM.
Regarding `CN1Cc2c(-c3ccc(C(=O)O)cc3)[nH]c3nccc(c23)-c2cc(F)ccc21` [Example 47, 4-(10-fluoro-7-methyl-6,7-dihydro-4H-3,4,7-triazadibenzo[cd,f]azulen-5-yl)benzoic acid], the figures for the half-maximal inhibitory concentration (IC50) in the assay on H929 cells and against CDK9/Cyclin T1 were 9800 nM and 150 nM, respectively.
As for `CN1Cc2c(C3=CCNCC3)[nH]c3ncc(F)c(c23)-c2cc(F)ccc21` [Example 48, 1,10-difluoro-7-methyl-5-(1,2,3,6-tetrahydropyridin-4-yl)-6,7-dihydro-4H-3,4,7-triazadibenzo[cd,f]azulene], the values for the IC50 with H929 cells and on CDK9/Cyclin T1 were 20 nM and 27 nM, respectively.
Take `CN1Cc2c(C3=CCN(C(=O)OC(C)(C)C)CC3)[nH]c3ncc(F)c(c23)-c2cc(F)ccc21` [Example 49, tert-butyl 4-(1,10-difluoro-7-methyl-6,7-dihydro-4H-3,4,7-triazadibenzo[cd,f]azulen-5-yl)-3,6-dihydropyridine-1(2H)-carboxylate]: the IC50 with H929 cells and against CDK9/Cyclin T1 was 780 nM in each case.
`CN(C)C(=O)C1CC=C(c2[nH]c3nccc4c3c2CN(C)c2ccc(F)cc2-4)CC1` (stereo not drawn) [Example 50, 4-(10-fluoro-7-methyl-6,7-dihydro-4H-3,4,7-triazadibenzo[cd,f]azulen-5-yl)-N,N-dimethylcyclohex-3-ene-1-carboxamide]: the IC50 in the assay on H929 cells was 960 nM; at CDK9/Cyclin T1 it was 120 nM.
Turning to `CN1Cc2c(C3=CCC(C(=O)N4CC(O)C4)CC3)[nH]c3nccc(c23)-c2cc(F)ccc21` (stereo not drawn) [Example 51, [4-(10-fluoro-7-methyl-6,7-dihydro-4H-3,4,7-triazadibenzo[cd,f]azulen-5-yl)cyclohex-3-en-1-yl](3-hydroxyazetidin-1-yl)methanone], the 50% inhibitory concentration (IC50) came out at 470 nM in the assay with H929 cells and 110 nM at CDK9/Cyclin T1.
For `CNC(=O)C1CC=C(c2[nH]c3nccc4c3c2CN(C)c2ccc(F)cc2-4)CC1` (stereo not drawn) [Example 52, 4-(10-fluoro-7-methyl-6,7-dihydro-4H-3,4,7-triazadibenzo[cd,f]azulen-5-yl)-N-methylcyclohex-3-ene-1-carboxamide], in that order: 150 nM and 63 nM.
For `CN1Cc2c(C3=CCN(CC(=O)N(CCO)CCO)CC3)[nH]c3nccc(c23)-c2cc(F)ccc21` [Example 53, 2-[4-(10-fluoro-7-methyl-6,7-dihydro-4H-3,4,7-triazadibenzo[cd,f]azulen-5-yl)-3,6-dihydropyridin-1(2H)-yl]-N,N-bis(2-hydroxyethyl)acetamide], in that order: 47 nM and 57 nM.
On the same counts, the results for `CN1Cc2c(C3=CCN(CC(=O)N4CC(F)(F)C4)CC3)[nH]c3nccc(c23)-c2cc(F)ccc21` [Example 54, 1-(3,3-difluoroazetidin-1-yl)-2-[4-(10-fluoro-7-methyl-6,7-dihydro-4H-3,4,7-triazadibenzo[cd,f]azulen-5-yl)-3,6-dihydropyridin-1(2H)-yl]ethanone] are 92 nM and 63 nM.
Take `CN(C)C(=O)CN1[C@H]2CC[C@@H]1C=C(c1[nH]c3nccc4c3c1CN(C)c1ccc(F)cc1-4)C2` [Example 55, 2-[(1R,5S)-3-(10-fluoro-7-methyl-6,7-dihydro-4H-3,4,7-triazadibenzo[cd,f]azulen-5-yl)-8-azabicyclo[3.2.1]oct-2-en-8-yl]-N,N-dimethylacetamide]: the concentration for half-maximal inhibition (IC50) worked out at 150 nM with H929 cells and 160 nM at CDK9/Cyclin T1.
For `CN1Cc2c(C3=C[C@H]4CC[C@@H](C3)N4S(C)(=O)=O)[nH]c3nccc(c23)-c2cc(F)ccc21` [Example 56, 10-fluoro-7-methyl-5-[(1R,5S)-8-(methylsulfonyl)-8-azabicyclo[3.2.1]oct-2-en-3-yl]-6,7-dihydro-4H-3,4,7-triazadibenzo[cd,f]azulene], in that order: 680 nM and 96 nM.
For `CNC(=O)N1[C@H]2CC[C@@H]1C=C(c1[nH]c3nccc4c3c1CN(C)c1ccc(F)cc1-4)C2` [Example 57, (1R,5S)-3-(10-fluoro-7-methyl-6,7-dihydro-4H-3,4,7-triazadibenzo[cd,f]azulen-5-yl)-N-methyl-8-azabicyclo[3.2.1]oct-2-ene-8-carboxamide], in that order: 2200 nM and 200 nM.
For the molecule `CN1Cc2c(C3=C[C@H]4CC[C@@H](C3)N4CC(=O)O)[nH]c3nccc(c23)-c2cc(F)ccc21` [Example 58, [(1R,5S)-3-(10-fluoro-7-methyl-6,7-dihydro-4H-3,4,7-triazadibenzo[cd,f]azulen-5-yl)-8-azabicyclo[3.2.1]oct-2-en-8-yl]acetic acid], the results for the concentration for half-maximal inhibition (IC50) with H929 cells and against CDK9/Cyclin T1 were 1400 nM and 170 nM, respectively.
On to `CN1Cc2c(C3=CC4CNCC4C3)[nH]c3nccc(c23)-c2cc(F)ccc21` (stereo not drawn) [Example 59, 10-fluoro-5-(1,2,3,3a,4,6a-hexahydrocyclopenta[c]pyrrol-5-yl)-7-methyl-6,7-dihydro-4H-3,4,7-triazadibenzo[cd,f]azulene], for which the concentration for half-maximal inhibition (IC50) with H929 cells stood at 190 nM; against CDK9/Cyclin T1 it was 88 nM.
On to `CN1Cc2c(-c3cccnc3)[nH]c3nccc(c23)-c2cc(F)ccc21` [Example 60, 10-fluoro-7-methyl-5-(pyridin-3-yl)-6,7-dihydro-4H-3,4,7-triazadibenzo[cd,f]azulene], for which the IC50 in the assay on H929 cells amounted to 320 nM; at CDK9/Cyclin T1 it was 75 nM.
For `CCOC(=O)C1CC=C(c2[nH]c3nccc4c3c2CN(C)c2ccc(F)cc2-4)CC1` (stereo not drawn) [Example 61, ethyl 4-(10-fluoro-7-methyl-6,7-dihydro-4H-3,4,7-triazadibenzo[cd,f]azulen-5-yl)cyclohex-3-ene-1-carboxylate], in that order: 1200 nM and 400 nM.
For `CN1Cc2c(C3=C[C@H]4CC[C@@H](C3)N4)[nH]c3nccc(c23)-c2cc(F)ccc21` [Example 62, 5-[(1R,5S)-8-azabicyclo[3.2.1]oct-2-en-3-yl]-10-fluoro-7-methyl-6,7-dihydro-4H-3,4,7-triazadibenzo[cd,f]azulene], in that order: 150 nM and 46 nM.
For `CN(CC(O)CO)C(=O)CN1CC=C(c2[nH]c3nccc4c3c2CN(C)c2ccc(F)cc2-4)CC1` (stereo not drawn) [Example 63, N-(2,3-dihydroxypropyl)-2-[4-(10-fluoro-7-methyl-6,7-dihydro-4H-3,4,7-triazadibenzo[cd,f]azulen-5-yl)-3,6-dihydropyridin-1(2H)-yl]-N-methylacetamide], the half-inhibitory concentration (IC50) in the assay with H929 cells worked out at 90 nM; on CDK9/Cyclin T1 it was 38 nM.
On the same counts, the results for `CN1Cc2c(C3=CCN(CC(=O)N4CCC[C@@H]4CO)CC3)[nH]c3nccc(c23)-c2cc(F)ccc21` [Example 64, 2-[4-(10-fluoro-7-methyl-6,7-dihydro-4H-3,4,7-triazadibenzo[cd,f]azulen-5-yl)-3,6-dihydropyridin-1(2H)-yl]-1-[(2R)-2-(hydroxymethyl)pyrrolidin-1-yl]ethanone] are 94 nM and 62 nM.
As to `CN1Cc2c(C3=CCN(CC(=O)OC(C)(C)C)CC3)[nH]c3ncc(F)c(c23)-c2cc(F)ccc21` [Example 65, tert-butyl[4-(1,10-difluoro-7-methyl-6,7-dihydro-4H-3,4,7-triazadibenzo[cd,f]azulen-5-yl)-3,6-dihydropyridin-1(2H)-yl]acetate], the values for the 50% inhibitory concentration (IC50) with H929 cells and against CDK9/Cyclin T1 were 140 nM and 100 nM, respectively.

Broadly, the IC50 is the point on the concentration scale where inhibition reaches its midpoint. Higher therefore signals lower potency.

The values above are taken from patent US9328112B2, “Tetracyclic CDK9 kinase inhibitors” (AbbVie Inc., priority 2014, dated 2016).
